Reference: the NIST ThermoML archive (doi:10.1021/je1012857)

Assay: xn = mol fraction of the nth substance listed
Conditions: 101 kPa, Liquid; for speed of sound: Sing-around technique in a fixed-path interferometer; for viscosity: Capillary tube (Ostwald / Ubbelohde) method

NCCN [ethane-1,2-diamine] + CC(C)O
Conditions	mass density [kg/m3]	speed of sound [m/s]	viscosity [mPa·s]
293.15 K, x1 = 0.0557	793.696	1187.2	–
293.15 K, x1 = 0.1036	800.705	1213.8	–
293.15 K, x1 = 0.156	807.902	1241.5	–
293.15 K, x1 = 0.2011	813.922	1265.8	–
293.15 K, x1 = 0.2548	820.862	1295.1	–
293.15 K, x1 = 0.3018	826.514	1320.2	–
293.15 K, x1 = 0.3892	836.546	1366.4	–
293.15 K, x1 = 0.5109	849.474	1430.5	–
293.15 K, x1 = 0.605	858.745	1478.9	–
293.15 K, x1 = 0.6988	868.4	1530.6	–
293.15 K, x1 = 0.7969	878.278	1584.3	–
293.15 K, x1 = 0.8369	881.835	1605.3	–
293.15 K, x1 = 0.8931	887.269	1635.6	–
293.15 K, x1 = 0.9409	892.34	1662.9	–
298.15 K, x1 = 0.0557	789.425	1169.4	2.034
298.15 K, x1 = 0.1036	796.388	1195.9	2.017
298.15 K, x1 = 0.156	803.523	1223.4	1.997
298.15 K, x1 = 0.2011	809.506	1247.6	1.978
298.15 K, x1 = 0.2548	816.397	1276.6	1.962
298.15 K, x1 = 0.3018	822.019	1301.6	1.936
298.15 K, x1 = 0.3892	832.023	1347.5	1.886
298.15 K, x1 = 0.5109	844.925	1410.9	1.796
298.15 K, x1 = 0.605	854.173	1458.9	1.725
298.15 K, x1 = 0.6988	863.796	1510	1.637
298.15 K, x1 = 0.7969	873.662	1563.2	1.543
298.15 K, x1 = 0.8369	877.194	1583.7	1.511
298.15 K, x1 = 0.8931	882.613	1613.9	1.469
298.15 K, x1 = 0.9409	887.669	1640.7	1.438
303.15 K, x1 = 0.0557	785.1	1151.7	1.761
303.15 K, x1 = 0.1036	792.016	1178	1.746
303.15 K, x1 = 0.156	799.108	1205.3	1.733
303.15 K, x1 = 0.2011	805.044	1229.4	1.718
303.15 K, x1 = 0.2548	811.904	1258.2	1.698
303.15 K, x1 = 0.3018	817.496	1283	1.675
303.15 K, x1 = 0.3892	827.475	1328.5	1.629
303.15 K, x1 = 0.5109	840.354	1391.5	1.558
303.15 K, x1 = 0.605	849.588	1439	1.496
303.15 K, x1 = 0.6988	859.186	1489.5	1.429
303.15 K, x1 = 0.7969	869.028	1542.1	1.357
303.15 K, x1 = 0.8369	872.546	1562.4	1.331
303.15 K, x1 = 0.8931	877.945	1592.1	1.298
303.15 K, x1 = 0.9409	882.985	1618.7	1.271
308.15 K, x1 = 0.0557	780.72	1134	1.555
308.15 K, x1 = 0.1036	787.599	1160.1	1.543
308.15 K, x1 = 0.156	794.649	1187.3	1.528
308.15 K, x1 = 0.2011	800.552	1211.2	1.516
308.15 K, x1 = 0.2548	807.374	1239.8	1.497
308.15 K, x1 = 0.3018	812.943	1264.5	1.48
308.15 K, x1 = 0.3892	822.898	1309.7	1.44
308.15 K, x1 = 0.5109	835.76	1372.1	1.375
308.15 K, x1 = 0.605	844.983	1419.1	1.322
308.15 K, x1 = 0.6988	854.563	1469.1	1.266
308.15 K, x1 = 0.7969	864.38	1521.1	1.205
308.15 K, x1 = 0.8369	867.885	1541.2	1.183
308.15 K, x1 = 0.8931	873.264	1570.6	1.152
308.15 K, x1 = 0.9409	878.288	1596.8	1.129
313.15 K, x1 = 0.0557	776.266	1116.4	–
313.15 K, x1 = 0.1036	783.114	1142.2	–
313.15 K, x1 = 0.156	790.129	1169.4	–
313.15 K, x1 = 0.2011	796.005	1193.2	–
313.15 K, x1 = 0.2548	802.798	1221.6	–
313.15 K, x1 = 0.3018	808.346	1246.1	–
313.15 K, x1 = 0.3892	818.281	1291.2	–
313.15 K, x1 = 0.5109	831.131	1353.4	–
313.15 K, x1 = 0.605	840.349	1399.4	–
313.15 K, x1 = 0.6988	849.909	1449.1	–
313.15 K, x1 = 0.7969	859.706	1500.5	–
313.15 K, x1 = 0.8369	863.196	1520.3	–
313.15 K, x1 = 0.8931	868.56	1549.4	–
313.15 K, x1 = 0.9409	873.569	1575.4	–
